Literature values in publication PMC4387854 (Bioorganic & medicinal chemistry, 2013).
Marks after values point to notes of the source that are not given here.

Assays:
[1] = female rats with MNU-initiated mammary tumors; ref Grubbs et al. 8
[2] = preclinical evaluation in rats and dogs or in human trials

## CC(=C/C=C/C(C)=C/C(=O)O)/C=C1\CCCc2ccccc21 [9cUAB30, (2E,4E,6Z,8Z)-8-(3’,4’-Dihydro-1’(2H)-naphthalen-1’-ylidene)-3,7-dimethyl-2,3,6-octatrienoinic acid]
[1]
  Serum Triglyceride Increase (%): 65% ^d
[2]
  Increase in serum TG: no increase
